# Where two headings read alike, the source gives them in different places.
# Key:
# Format in all cases: biochemical
# [1] = target: CSNK1A1 (Homo sapiens (Human), UniProt P48729); experiment: CSNK1A1 Assay 2 (ADP-Glo, 1 μM ATP); details: median, read-out: CSNK1A1 Assay 2 IC50 [mol/l] (median)
# Method in brief: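 ADP-Glo luminescence, taken as ADP formed, reports activity against biotinylated phospho-peptide substrate biotin-Ahx-KRRRAL-pS-VASLPGL at 1 μM ATP.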
# [2] = target: wild-type Epidermal Growth Factor Receptor (EGFR) (Homo sapiens (Human), UniProt P00533); experiment: WT-EGFR Kinase Assay (TR-FRET, 2 mM ATP)
# Sequence of wild-type Epidermal Growth Factor Receptor (EGFR) (P00533 669-1210): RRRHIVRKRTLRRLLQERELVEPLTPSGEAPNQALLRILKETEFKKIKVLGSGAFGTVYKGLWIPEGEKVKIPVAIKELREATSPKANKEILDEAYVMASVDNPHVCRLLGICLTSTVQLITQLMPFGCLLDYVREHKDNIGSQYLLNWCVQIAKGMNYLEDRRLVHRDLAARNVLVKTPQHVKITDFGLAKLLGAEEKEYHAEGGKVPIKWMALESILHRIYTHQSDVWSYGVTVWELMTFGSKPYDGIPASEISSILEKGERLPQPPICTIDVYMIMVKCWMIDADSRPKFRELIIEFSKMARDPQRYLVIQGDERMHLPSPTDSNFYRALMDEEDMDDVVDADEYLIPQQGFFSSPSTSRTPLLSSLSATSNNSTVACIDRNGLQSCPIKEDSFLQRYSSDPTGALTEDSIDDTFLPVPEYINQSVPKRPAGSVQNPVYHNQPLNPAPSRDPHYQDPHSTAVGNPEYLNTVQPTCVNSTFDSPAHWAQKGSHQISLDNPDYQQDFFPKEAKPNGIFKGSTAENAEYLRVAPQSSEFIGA
# Method in brief: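 TR-FRET read-out of biotinylated peptide phosphorylation, taken as the 665/622 nm ratio after EDTA stop and 1 h detection at 22° C. Kinase: GST fusion of human EGFR aa R669–A1210, given a 15 min compound pre-binding step; reaction run at 2 mM ATP.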
# [3] = target: CSNK1D (Homo sapiens (Human), UniProt P48730); experiment: CSNK1D Assay (ADP-Glo, 1 μM ATP); details: median, read-out: CSNK1D IC50 [mol/l] (median)
# Sequence of CSNK1D (P48730 whole entry): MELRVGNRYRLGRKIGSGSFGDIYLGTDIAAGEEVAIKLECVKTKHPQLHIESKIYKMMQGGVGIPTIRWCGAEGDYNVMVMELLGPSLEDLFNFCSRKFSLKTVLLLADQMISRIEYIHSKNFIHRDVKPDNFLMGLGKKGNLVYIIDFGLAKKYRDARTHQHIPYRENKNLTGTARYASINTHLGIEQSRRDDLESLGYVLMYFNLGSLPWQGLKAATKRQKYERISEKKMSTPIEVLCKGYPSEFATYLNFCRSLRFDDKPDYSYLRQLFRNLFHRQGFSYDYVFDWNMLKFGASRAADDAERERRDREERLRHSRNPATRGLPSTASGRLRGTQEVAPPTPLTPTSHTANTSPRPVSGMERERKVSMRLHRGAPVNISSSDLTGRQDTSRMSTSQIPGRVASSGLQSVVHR
# Method in brief: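 Enzyme preincubated with compound 15 min at 22° C in 50 mM HEPES pH 7.5 buffer with 10 mM MgCl2, 1 mM DTT; kinase reaction run at 1 μM ATP with biotinylated peptide substrate. ADP formed was detected by ADP-Glo luminescence as the measure of activity.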
# [4] = EGFR Wildtyp 2 mM ATP IC50 [mol/l] (median), median or individual measurements
# [5] = read-out: EGFR Wildtyp 2 mM ATP IC50 [mol/l] (median), median or individual measurements
# Sequence of CSNK1A1 (P48729 whole entry): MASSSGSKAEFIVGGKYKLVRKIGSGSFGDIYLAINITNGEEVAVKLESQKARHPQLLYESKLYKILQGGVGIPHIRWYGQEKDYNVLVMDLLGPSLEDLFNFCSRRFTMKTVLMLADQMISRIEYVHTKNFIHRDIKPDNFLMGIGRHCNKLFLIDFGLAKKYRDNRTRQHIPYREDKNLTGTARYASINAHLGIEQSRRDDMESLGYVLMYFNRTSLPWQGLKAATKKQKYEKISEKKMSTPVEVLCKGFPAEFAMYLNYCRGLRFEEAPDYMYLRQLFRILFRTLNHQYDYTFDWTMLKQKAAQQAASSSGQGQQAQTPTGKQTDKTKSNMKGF
Compound,IC50 [1] [nM],"IC50 [2, 4] [nM]",IC50 [3] [nM],"IC50 [2, 5] [nM]"
"CC(C(=O)Nc1cc(-c2[nH]c3c(c2-c2ccc(F)cc2F)C(=O)N(C)CC3)ccn1)c1ccc(F)cc1 (single isomer, unassigned) [Example 70, N-{4-[3-(2,4-difluorophenyl)-5-methyl-4-oxo-4,5,6,7-tetrahydro-1H-pyrrolo[3,2-c]pyridin-2-yl]pyridin-2-yl}-2-(4-fluorophenyl)propanamide]",16,> 20000,7.6,–
"CC(C(=O)Nc1cc(-c2[nH]c3c(c2-c2ccc(F)cc2F)C(=O)N(C)CC3)ccn1)c1ccc(F)cc1 (single isomer, unassigned) [Example 71, N-{4-[3-(2,4-difluorophenyl)-5-methyl-4-oxo-4,5,6,7-tetrahydro-1H-pyrrolo[3,2-c]pyridin-2-yl]pyridin-2-yl}-2-(4-fluorophenyl)propanamide]",1.7,–,2.1,> 20000
"CC(C(=O)Nc1cc(-c2[nH]c3c(c2-c2ccc(F)cc2)C(=O)NC(C)(C)C3)ccn1)c1ccc(F)cc1 (single isomer, unassigned) [Example 95, 2-(4-fluorophenyl)-N-{4-[3-(4-fluorophenyl)-6,6-dimethyl-4-oxo-4,5,6,7-tetrahydro-1H-pyrrolo[3,2-c]pyridin-2-yl]pyridin-2-yl}propanamide]",14,> 20000,4.6,–
"CC(C(=O)Nc1cc(-c2[nH]c3c(c2-c2ccc(F)cc2)C(=O)NC(C)(C)C3)ccn1)c1ccc(F)cc1 (single isomer, unassigned) [Example 96, 2-(4-fluorophenyl)-N-{4-[3-(4-fluorophenyl)-6,6-dimethyl-4-oxo-4,5,6,7-tetrahydro-1H-pyrrolo[3,2-c]pyridin-2-yl]pyridin-2-yl}propanamide]",1.3,–,2,> 20000
"CC(C(=O)Nc1cc(-c2[nH]c3c(c2-c2cccnc2)C(=O)NC(C)(C)C3)ccn1)c1ccc(F)cc1 (single isomer, unassigned) [Example 98, N-{4-[6,6-dimethyl-4-oxo-3-(pyridin-3-yl)-4,5,6,7-tetrahydro-1H-pyrrolo[3,2-c]pyridin-2-yl]pyridin-2-yl}-2-(4-fluorophenyl)propanamide]",71,> 20000,19,–
"CC(C(=O)Nc1cc(-c2[nH]c3c(c2-c2cccnc2)C(=O)NC(C)(C)C3)ccn1)c1ccc(F)cc1 (single isomer, unassigned) [Example 99, N-{4-[6,6-dimethyl-4-oxo-3-(pyridin-3-yl)-4,5,6,7-tetrahydro-1H-pyrrolo[3,2-c]pyridin-2-yl]pyridin-2-yl}-2-(4-fluorophenyl)propanamide]",4.3,–,5.5,> 20000
"CC(C(=O)Nc1cc(-c2[nH]c3ccn(C)c(=O)c3c2-c2ccccc2)ccn1)c1ccc(F)cc1 (single isomer, unassigned) [Example 104, 2-(4-fluorophenyl)-N-[4-(5-methyl-4-oxo-3-phenyl-4,5-dihydro-1H-pyrrolo[3,2-c]pyridin-2-yl)pyridin-2-yl]propanamide]",7,> 20000,5.1,–
"CC(C(=O)Nc1cc(-c2[nH]c3ccn(C)c(=O)c3c2-c2ccccc2)ccn1)c1ccc(F)cc1 (single isomer, unassigned) [Example 105, 2-(4-fluorophenyl)-N-[4-(5-methyl-4-oxo-3-phenyl-4,5-dihydro-1H-pyrrolo[3,2-c]pyridin-2-yl)pyridin-2-yl]propanamide]",0.71,8220,1.5,–
"Cn1cc(CC(F)F)c2[nH]c(-c3ccnc(NC(=O)C(CC(F)F)c4ccc(F)cc4)c3)c(-c3ccccc3)c2c1=O (single isomer, unassigned) [Example 148, N-{4-[7-(2,2-difluoroethyl)-5-methyl-4-oxo-3-phenyl-4,5-dihydro-1H-pyrrolo[3,2-c]pyridin-2-yl]pyridin-2-yl}-4,4-difluoro-2-(4-fluorophenyl)butanamide]",12,8750,6.8,–
"Cn1cc(CC(F)F)c2[nH]c(-c3ccnc(NC(=O)C(CC(F)F)c4ccc(F)cc4)c3)c(-c3ccccc3)c2c1=O (single isomer, unassigned) [Example 149, N-{4-[7-(2,2-difluoroethyl)-5-methyl-4-oxo-3-phenyl-4,5-dihydro-1H-pyrrolo[3,2-c]pyridin-2-yl]pyridin-2-yl}-4,4-difluoro-2-(4-fluorophenyl)butanamide]",3.7,> 20000,3.8,–
"CC(C(=O)Nc1cc(-c2[nH]c3c(c2-c2ccccc2)C(=O)N(C)CC3)ccn1)c1ccncc1 (single isomer, unassigned) [Example 155, N-[4-(5-methyl-4-oxo-3-phenyl-4,5,6,7-tetrahydro-1H-pyrrolo[3,2-c]pyridin-2-yl)pyridin-2-yl]-2-(pyridin-4-yl)propanamide]",1.3,> 20000,2,–
"O=C(Nc1cc(-c2[nH]c3ccn(C4CC4)c(=O)c3c2-c2ccccc2)ccn1)C(CC(F)F)c1ccc(F)cc1 (single isomer, unassigned) [Example 157, (2R or S)—N-[4-(5-cyclopropyl-4-oxo-3-phenyl-4,5-dihydro-1H-pyrrolo[3,2-c]pyridin-2-yl)pyridin-2-yl]-4,4-difluoro-2-(4-fluorophenyl)butanamide]",2,> 20000,2.3,–
"O=C(Nc1cc(-c2[nH]c3ccn(C4CC4)c(=O)c3c2-c2ccccc2)ccn1)C(CC(F)F)c1ccc(F)cc1 (single isomer, unassigned) [Example 158, (2R or S)—N-[4-(5-cyclopropyl-4-oxo-3-phenyl-4,5-dihydro-1H-pyrrolo[3,2-c]pyridin-2-yl)pyridin-2-yl]-4,4-difluoro-2-(4-fluorophenyl)butanamide]",3.2,–,5.1,> 20000
"CC(C(=O)Nc1cc(-c2[nH]c3ccn(C)c(=O)c3c2-c2ccc(F)cc2)ccn1)c1ccc(F)cc1 (single isomer, unassigned; (+)) [Example 102, (+)-2-(4-fluorophenyl)-N-{4-[3-(4-fluorophenyl)-5-methyl-4-oxo-4,5-dihydro-1H-pyrrolo[3,2-c]pyridin-2-yl]pyridin-2-yl}propanamide]",1,875,2,–
"Cn1ccc2[nH]c(-c3ccnc(NC(=O)C(CC(F)F)c4ccc(F)cc4)c3)c(-c3ccc(F)cc3)c2c1=O (single isomer, unassigned; (+)) [Example 109, (+)-4,4-difluoro-2-(4-fluorophenyl)-N-{4-[3-(4-fluorophenyl)-5-methyl-4-oxo-4,5-dihydro-1H-pyrrolo[3,2-c]pyridin-2-yl]pyridin-2-yl}butanamide]",2.1,3850,3.7,–
"O=C(Nc1cc(-c2[nH]c3ccn(C4CC4)c(=O)c3c2-c2ccc(F)cc2)ccn1)C(CC(F)F)c1ccc(F)cc1 (single isomer, unassigned; (+)) [Example 136, (+)-N-{4-[5-cyclopropyl-3-(4-fluorophenyl)-4-oxo-4,5-dihydro-1H-pyrrolo[3,2-c]pyridin-2-yl]pyridin-2-yl}-4,4-difluoro-2-(4-fluorophenyl)butanamide]",3.1,–,2.1,> 20000
"CN1CC(C)(C)c2[nH]c(-c3ccnc(NC(=O)C(CC(F)F)c4ccc(F)cc4)c3)c(-c3ccccc3)c2C1=O (single isomer, unassigned; (+)) [Example 152, (+)-4,4-difluoro-2-(4-fluorophenyl)-N-[4-(5,7,7-trimethyl-4-oxo-3-phenyl-4,5,6,7-tetrahydro-1H-pyrrolo[3,2-c]pyridin-2-yl)pyridin-2-yl]butanamide]",4.3,–,4.5,> 20000
"CC(C(=O)Nc1cc(-c2[nH]c3ccn(C)c(=O)c3c2-c2ccc(F)cc2)ccn1)c1ccc(F)cc1 (single isomer, unassigned; (-)) [Example 101, (−)-2-(4-fluorophenyl)-N-{4-[3-(4-fluorophenyl)-5-methyl-4-oxo-4,5-dihydro-1H-pyrrolo[3,2-c]pyridin-2-yl]pyridin-2-yl}propanamide]",12,32.4,5.6,–
"Cn1ccc2[nH]c(-c3ccnc(NC(=O)C(CC(F)F)c4ccc(F)cc4)c3)c(-c3ccc(F)cc3)c2c1=O (single isomer, unassigned; (-)) [Example 108, (−)-4,4-difluoro-2-(4-fluorophenyl)-N-{4-[3-(4-fluorophenyl)-5-methyl-4-oxo-4,5-dihydro-1H-pyrrolo[3,2-c]pyridin-2-yl]pyridin-2-yl}butanamide]",15,663,9.4,–
"O=C(Nc1cc(-c2[nH]c3ccn(C4CC4)c(=O)c3c2-c2ccc(F)cc2)ccn1)C(CC(F)F)c1ccc(F)cc1 (single isomer, unassigned; (-)) [Example 135, (−)-N-{4-[5-cyclopropyl-3-(4-fluorophenyl)-4-oxo-4,5-dihydro-1H-pyrrolo[3,2-c]pyridin-2-yl]pyridin-2-yl}-4,4-difluoro-2-(4-fluorophenyl)butanamide]",7.8,> 20000,5.4,–

# From patent publication US20230322767A1, “ARYL SUBSTITUTED PYRROLO-PYRIDINONES AND THERAPEUTIC USES THEREOF” (Bayer Aktiengesellschaft, priority 2020, published 2023)
